Reference: article PMC11091889, “Silver Organometallics that are Highly Potent Thioredoxin and Glutathione Reductase Inhibitors: Exploring the Correlations of Solution Chemistry with the Strong Antibacterial Effects” (ACS Infectious Diseases, 2024)

Columns and labels:
[1] = Conductometry: molar conductivity of silver complexes in DMSO; format: physicochemical; details: 1.0 mM in DMSO, calculated as monocarbene (NHC)AgX
Procedure, shortened: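 Molar conductivity of each silver complex was measured at 1.0 mM in freshly distilled DMSO (specific conductivity ≤3 × 10^–8 S cm^–1) using an Apera Instruments EC9500 conductivity meter at 25 ± 2 °C. AgNO3 served as the 1:1 electrolyte reference, and readings were taken after dissolution to distinguish neutral monocarbene from ionic biscarbene forms.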

[2] = tested on: E. coli (DSM1116, ATCC 9637); test: microbe, parasite or virus in culture; format: cell-based, Escherichia coli; details: for EC50 / MIC E. coli: mean ± standard error; for EC50 / MIC E. coli / MIC E. coli (value in brackets): n = 3, MHB; for MIC E. coli / MIC E. coli (value in brackets): 22 h
Procedure, shortened: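 Escherichia coli DSM1116 (ATCC 9637) was tested by broth microdilution in 96-well plates in duplicate, with compounds serially diluted from 64 to 1 μg/mL. Inocula of 2–8 × 10^5 CFU/mL were used in MHB (21 g/L Müller Hinton broth, pH 7.4), either alone or supplemented with tryptone (17 g/L) or yeast extract (3 g/L). After 22 h at 37 °C, absorbance at 600 nm was read. MIC and EC50 were obtained by curve fitting in Sigma Plot from three independent experiments, and ciprofloxacin served as the positive control.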

[3] = tested on: P. aeruginosa PA7 (DSM 24068); test: microbe, parasite or virus in culture; format: cell-based, Pseudomonas aeruginosa; details: n = 3, MHB; for MIC P. aeruginosa / EC50: mean ± standard error; for MIC P. aeruginosa / MIC P. aeruginosa (value in brackets): 22 h; for EC50: read-out: EC50 P. aeruginosa
Procedure, shortened: (§1)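 Broth microdilution used 2–8 × 10^5 CFU/mL inocula, with compounds serially diluted 64 to 1 μg/mL and incubated 22 h at 37 °C, read at 600 nm. A. baumannii, K. pneumoniae and P. aeruginosa were grown in MHB pH 7.4; E. faecium was grown in TSY pH 7.0–7.2. MIC and EC50 were obtained by curve fitting from three independent experiments.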

[4] = tested on: K. pneumoniae (DSM 11678, ATCC33495); test: Broth microdilution antibacterial assay; format: cell-based, Klebsiella pneumoniae; details: n = 3, MHB; for MIC K. pneumoniae / EC50: mean ± standard error; for MIC K. pneumoniae / MIC K. pneumoniae (value in brackets): 22 h; for EC50: read-out: EC50 K. pneumoniae
Procedure, shortened: as §1

[5] = tested on: A. baumannii (DSM 30007, ATCC 19606); test: Broth microdilution antibacterial assay; format: cell-based, Acinetobacter baumannii; details: n = 3, MHB; for MIC A. baumannii / EC50: mean ± standard error; for MIC A. baumannii / MIC A. baumannii (value in brackets): 22 h; for EC50: read-out: EC50 A. baumannii
Procedure, shortened: as §1

[6] = tested on: S. aureus MRSA (DSM 11822, ICB 25701); test: microbe, parasite or virus in culture; format: cell-based, methicillin resistant S. aureus; details: n = 3, TSY; for MIC MRSA / EC50: mean ± standard error; for MIC MRSA / MIC MRSA (value in brackets): 22 h; for EC50: read-out: EC50 MRSA
Procedure, shortened: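 Broth microdilution in TSY (30 g/L trypticase soy broth, 3 g/L yeast extract, pH 7.0–7.2), inoculum 2–8 × 10^5 CFU/mL, compounds serially diluted 64 to 1 μg/mL, 22 h at 37 °C. Growth read as absorbance at 600 nm; MIC and EC50 obtained by curve fitting, three independent experiments.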

[7] = tested on: E. faecium (DSM 20477, ATCC 19434); test: Broth microdilution antibacterial assay; format: cell-based, Enterococcus faecium; details: n = 3, TSY; for MIC E. faecium / EC50: mean ± standard error; for MIC E. faecium / MIC E. faecium (value in brackets): 22 h; for EC50: read-out: EC50 E. faecium
Procedure, shortened: as §1

[8] = tested on: Caco-2 cells; details: read-out: Cytotoxicity IC50 Caco-2; 24 h, almost confluent cell layers, highest concentration 100 μM
Method: Besides the antimicrobial effects, the toxic effects of silver ions have to be considered.[10],[12] As a primary evaluation of the cell toxicity triggered by silver NHC complexes, almost confluent cell layers of CaCo-2 cells were grown and challenged for 24 h with the silver complexes and also with the silver reference compounds AgNO3 and SSD (see Figure 6).
Caco-2 cells were grown as almost confluent monolayers in 96-well plates. The complexes were dissolved in wells of 96-well plates as stock solutions in DMSO (0.2% v/v) diluted with DMEM cell culture medium, which was supplemented with 10% fetal calf serum and 50 mg/L gentamicin. The cell layers were incubated with the drug containing media for 24 h at 37 °C/5% CO2 in an incubator. The cell viability was determined using crystal violet (0.02%) staining and was calculated as percentage of an untreated control. Results were obtained in three independent experiments.

[9] = target: T1, glutathione reductase (GR) from baker's yeast (Saccharomyces cerevisiae, UniProt P41921); test: GR inhibition assay (DTNB reduction); format: biochemical; details: ± standard deviation, n = 3, 75 min preincubation
T1 construct: purchased Sigma-Aldrich
T1 sequence (P41921 17-483 limits assumed): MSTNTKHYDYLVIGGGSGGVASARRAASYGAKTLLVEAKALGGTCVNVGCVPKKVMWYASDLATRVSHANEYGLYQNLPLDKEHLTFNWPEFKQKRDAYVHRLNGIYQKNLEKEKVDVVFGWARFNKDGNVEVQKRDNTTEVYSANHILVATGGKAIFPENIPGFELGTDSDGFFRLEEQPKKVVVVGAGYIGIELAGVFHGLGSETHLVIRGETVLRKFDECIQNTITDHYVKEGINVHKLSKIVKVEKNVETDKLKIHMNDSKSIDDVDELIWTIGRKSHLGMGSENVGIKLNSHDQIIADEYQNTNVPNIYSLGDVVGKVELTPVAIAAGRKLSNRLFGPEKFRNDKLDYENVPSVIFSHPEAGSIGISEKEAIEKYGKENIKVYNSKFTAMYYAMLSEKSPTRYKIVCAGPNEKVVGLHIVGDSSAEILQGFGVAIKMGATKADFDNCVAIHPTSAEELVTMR
Method: (§2) The inhibition of purified E. coli thioredoxin reductase (TrxR) and glutathione reductase (GR) from both E. coli and baker’s yeast was determined according to a previously applied procedure.[59],[60]
(§3) The TrxR (E. coli) and GR (baker’s yeast and E. coli) inhibition assays were performed according to previously published procedures.[62],[75] The assays are partly based on the procedure developed by Lu et al.[60] and make use of the reduction of 5,5′-dithiobis(2-nitrobenzoic acid) (DTNB). Solutions of E. coli TrxR (35.4 U/mL) and E. coli thioredoxin (Trx) (156 μg/mL) (both purchased from Sigma-Aldrich) or baker’s yeast GR (0,08 U/mL, Sigma-Aldrich) or E. coli GR (4.2 U/ml, Antibodies online) and GSSG (0.28 mM, Sigma-Aldrich) in distilled water were prepared, as were fresh 2 mM stock solutions of the test compounds in DMSO. Then, solutions with several concentrations of the test compounds in DMSO were prepared, and 35 μL of each solution was diluted with 965 μL of TE buffer (Tris–HCl 50 mM, EDTA 1 mM, pH 7.5). These solutions (20 μL) or TE buffer without the test compounds (20 μL, as control) were mixed with the TrxR or GR solutions (10 μL), the Trx or GSSG solutions (10 μL), and a solution of NADPH (200 μM) in TE buffer (100 μL) in a well on a 96-well plate. As a blank solution, 200 μM NADPH in TE buffer (100 μL) mixed with a DMSO/buffer mixture (40 μL) was used (final concentrations of DMSO: 0.5% v/v). The plate was incubated for 75 min at 25 °C with moderate shaking. After incubation, 100 μL of a reaction mixture (TE buffer containing 200 μM NADPH and 5 mM DTNB) was added to each well to initiate the reaction. After thorough mixing, the formation of 5-TNB was monitored by a microplate reader at 405 nm in 35 s intervals (10 measurements). The values were corrected by subtraction of the blank solution absorption values. The increase in the concentration of 5-TNB followed a linear trend (r^2 ≥ 0.990), and the enzymatic activities were calculated as the gradients (increase in absorbance per second) thereof. […] The inhibition is presented as the mean IC50 values and standard deviations obtained in three independent experiments.

[10] = target: T2, glutathione reductase (GR) from E. coli (Escherichia coli, UniProt P06715); test: GR inhibition assay (DTNB reduction); format: biochemical; details: ± standard deviation, n = 3, 75 min preincubation
T2 construct: purchased Antibodies online
T2 sequence (P06715 1-450): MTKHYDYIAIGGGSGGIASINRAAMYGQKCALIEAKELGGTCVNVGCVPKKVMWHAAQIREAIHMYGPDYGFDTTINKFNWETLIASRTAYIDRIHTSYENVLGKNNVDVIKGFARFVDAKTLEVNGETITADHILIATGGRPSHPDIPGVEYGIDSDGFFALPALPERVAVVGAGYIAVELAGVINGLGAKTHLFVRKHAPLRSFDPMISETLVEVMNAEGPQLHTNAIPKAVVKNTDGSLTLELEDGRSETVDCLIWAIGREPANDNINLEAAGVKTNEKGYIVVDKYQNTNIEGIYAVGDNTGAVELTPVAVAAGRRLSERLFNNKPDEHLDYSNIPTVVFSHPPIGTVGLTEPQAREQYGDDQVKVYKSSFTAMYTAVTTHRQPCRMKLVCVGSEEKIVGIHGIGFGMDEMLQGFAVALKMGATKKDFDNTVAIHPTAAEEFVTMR
Method: as §2, §3

[11] = target: E. coli thioredoxin reductase (TrxR) (Escherichia coli, UniProt P0A9P4); details: read-out: IC50 TrxR from E. coli; ± standard deviation, n = 3, 75 min preincubation
Chain of E. coli thioredoxin reductase (TrxR) (P0A9P4 whole entry): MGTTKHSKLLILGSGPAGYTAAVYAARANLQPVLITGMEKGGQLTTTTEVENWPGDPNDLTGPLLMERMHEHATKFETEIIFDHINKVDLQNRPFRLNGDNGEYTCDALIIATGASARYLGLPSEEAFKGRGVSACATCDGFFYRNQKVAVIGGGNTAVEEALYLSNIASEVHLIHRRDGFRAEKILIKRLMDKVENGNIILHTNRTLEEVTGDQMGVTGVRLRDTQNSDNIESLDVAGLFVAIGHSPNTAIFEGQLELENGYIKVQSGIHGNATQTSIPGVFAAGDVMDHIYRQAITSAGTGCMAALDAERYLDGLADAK
Method: as §2, §3

Cn1[c](=[Ag][I])n(Cc2ccccn2)c2ccccc21 [1c, Iodido (1-Methyl-3-(pyridin-2-ylmethyl)-benzimidazol-2-ylidene) Silver(I)]
Molar conductivity ΛM ([1]; 1 h after dissolution): 7.82 S cm^2 mol^–^1
Molar conductivity ΛM ([1]; 24 h after dissolution): 8.13 S cm^2 mol^–^1
EC50 [2]: 6.4 ± 1.1 µM
MIC E. coli [2]: 11.6 ± 2.9 µM
MIC E. coli (value in brackets) [2]: 5 µg/mL
MIC P. aeruginosa [3]: 14.6 ± 2.9 µM
EC50 [3]: 5 ± 0.5 µM
MIC P. aeruginosa (value in brackets) [3]: 7 µg/mL
MIC K. pneumoniae [4]: 5.1 ± 1.9 µM
EC50 [4]: 2 ± 0.2 µM
MIC K. pneumoniae (value in brackets) [4]: 2 µg/mL
MIC A. baumannii [5]: 8.7 ± 0.0 µM
EC50 [5]: 4.1 ± 0.4 µM
MIC A. baumannii (value in brackets) [5]: 4 µg/mL
MIC MRSA [6]: > 140 µM
EC50 [6]: > 140 µM
MIC MRSA (value in brackets) [6]: > 64 µg/mL
MIC E. faecium [7]: > 140 µM
EC50 [7]: > 140 µM
MIC E. faecium (value in brackets) [7]: > 64 µg/mL
IC50 [8]: > 100 µM

CCn1[c](=[Ag][I])n(Cc2ccccn2)c2ccccc21 [2c, Iodido (1-Ethyl-3-(pyridin-2-ylmethyl)-benzimidazol-2-ylidene) Silver(I)]
Molar conductivity ΛM ([1]; 1 h after dissolution): 6.98 S cm^2 mol^–^1
Molar conductivity ΛM ([1]; 24 h after dissolution): 6.28 S cm^2 mol^–^1
EC50 [2]: 12.8 ± 1.1 µM
MIC E. coli [2]: 16.9 ± 0.0 µM
MIC E. coli (value in brackets) [2]: 8 µg/mL
MIC P. aeruginosa [3]: 45.2 ± 11.3 µM
EC50 [3]: 14.2 ± 0.8 µM
MIC P. aeruginosa (value in brackets) [3]: 21 µg/mL
MIC K. pneumoniae [4]: 11.3 ± 2.8 µM
EC50 [4]: 5.9 ± 1.7 µM
MIC K. pneumoniae (value in brackets) [4]: 5 µg/mL
MIC A. baumannii [5]: 8.5 ± 0.0 µM
EC50 [5]: 2.9 ± 0.5 µM
MIC A. baumannii (value in brackets) [5]: 4 µg/mL
MIC MRSA [6]: > 136 µM
EC50 [6]: > 136 µM
MIC MRSA (value in brackets) [6]: > 64 µg/mL
MIC E. faecium [7]: > 136 µM
EC50 [7]: > 136 µM
MIC E. faecium (value in brackets) [7]: > 64 µg/mL
IC50 [8]: > 100 µM

O=[N+]([O-])[O-].[Ag+] [AgNO3, Silver nitrate, reference compound]
Molar conductivity ΛM ([1]; 1 h after dissolution): 37.8 S cm^2 mol^–^1
Molar conductivity ΛM ([1]; 24 h after dissolution): 38.1 S cm^2 mol^–^1
MIC E. coli DSM 1116 in MHB + tryptone ([2]; Müller-Hinton Broth with tryptone (17 g/L), ± SE): 251.1 ± 62.8 µM
MIC E. coli DSM 1116 in MHB + yeast extract ([2]; Müller-Hinton Broth with yeast extract (3 g/L), ± SE): 123.6 ± 29.4 µM
MIC E. coli DSM 1116 in MHB ([2]; Müller-Hinton Broth without additive, ± SE): 5.89 ± 0.0 µM
EC50 [2]: 4.87 ± 0.1 µM
MIC E. coli [2]: 5.9 ± 0.0 µM
MIC E. coli (value in brackets) [2]: 1 µg/mL
MIC P. aeruginosa [3]: 5.9 ± 0.0 µM
EC50 [3]: 4.12 ± 0.4 µM
MIC P. aeruginosa (value in brackets) [3]: 1 µg/mL
MIC K. pneumoniae [4]: 5.9 ± 0.0 µM
EC50 [4]: 4.41 ± 0.5 µM
MIC K. pneumoniae (value in brackets) [4]: 1 µg/mL
MIC A. baumannii [5]: 5.9 ± 0.0 µM
EC50 [5]: 4.16 ± 0.4 µM
MIC A. baumannii (value in brackets) [5]: 1 µg/mL
MIC MRSA [6]: 188 ± 0.0 µM
EC50 [6]: 98.9 ± 6.4 µM
MIC MRSA (value in brackets) [6]: 32 µg/mL
MIC E. faecium [7]: 94.1 ± 0.0 µM
EC50 [7]: 75.9 ± 5.7 µM
MIC E. faecium (value in brackets) [7]: 16 µg/mL
IC50 [9]: 0.033 ± 0.003 µM
IC50 [10]: 0.031 ± 0.001 µM
IC50 [11]: 0.054 ± 0.005 µM
